Measurements taken from patent publication US10500274B2, “Methods for reducing viral load in HIV-1 infected patients” (CytoDyn Inc., priority 2008, dated 2019).
Where two headings read alike, the source gives them in different places.

What was measured:
HIV-1 = settings: dose-dependent, treatment period of 10-14 days; cited from earlier work
[1] = tested on: HIV-1JR-FL envelope-mediated membrane fusion; test: microbe, parasite or virus in culture; type: cell-based; set-up: CI90: unit not given beside the values
[2] = tested on: reporter viruses pseudotyped with HIV-1JR-FL envelope (U87-CD4-CCR5 cells); test: microbe, parasite or virus in culture; type: cell-based; settings: for IC50 / IC90: Human immunodeficiency virus 1, U87/CD4/CCR5
[3] = tested on: reporter viruses pseudotyped with HIV-1SF162 envelope (U87-CD4-CCR5 cells); test: HIV-1 pseudovirus assay, SF162 envelope; type: cell-based; settings: Human immunodeficiency virus 1, U87/CD4/CCR5
From the text: A self-inactivating (SIN) vector was derived from the pNL4-3ΔEnv-luciferase vector (Dragic et al. 1996) by deleting 507 basepairs in the U3 region of the 3′ long terminal repeat (LTR) so as to remove the TATA box and transcription factor binding sites. The human cytomegalovirus promoter was inserted upstream of the luciferase (luc) gene to enable expression of luciferase following integration.
Reporter viruses pseudotyped with HIV-1JR-FL or HIV-15F162 envelopes were generated by cotransfection of 293T cells with the SIN vector and the appropriate pcDNA env-expressing vector as previously described (Dragic et al. 1996). U87-CD4-CCR5 cells (8,000/well; NIH AIDS Research and Reference Reagent Program) were infected with 125-375 pg of HIV-L pseudoviruses in 384-well plates in the presence or absence of inhibitor(s). Cultures were incubated for 72 h at 37° C. in DMEM containing 10% fetal bovine serum, […], 0.3 mg/mL geneticin, antibiotics, and 0.5% DMSO. Luciferase activity (relative light units or RLU) was measured using BrightGlo reagent (Promega, Madison, Wis.) according to the manufacturer's instructions.
Experimental design and data analysis were based on the combination index (CI) method (Chou et al. 1991; Chou et al. 1984). […] The mutually exclusive CI formula was used for combinations of CCR5 inhibitors, while the mutually non-exclusive formula was utilized for combinations of inhibitors to distinct targets (Chou et al. 1991). Each test was conducted 4-12 times. Synergy, additivity and antagonism are indicated by CI<1, CI=1 and CI>1, respectively.
In the Bonferroni correction, P=α/n, where n is the number of comparisons. Twenty-two synergy comparisons (11 compounds×2 CI values) were made based on data generated in the membrane fusion assay, resulting in a corrected P value of 0.0023.

CCR5 = CCR5 (Homo sapiens, UniProt P51681); settings: cited from earlier work
CCR5, sequence (P51681 whole entry, the tested form may be a part): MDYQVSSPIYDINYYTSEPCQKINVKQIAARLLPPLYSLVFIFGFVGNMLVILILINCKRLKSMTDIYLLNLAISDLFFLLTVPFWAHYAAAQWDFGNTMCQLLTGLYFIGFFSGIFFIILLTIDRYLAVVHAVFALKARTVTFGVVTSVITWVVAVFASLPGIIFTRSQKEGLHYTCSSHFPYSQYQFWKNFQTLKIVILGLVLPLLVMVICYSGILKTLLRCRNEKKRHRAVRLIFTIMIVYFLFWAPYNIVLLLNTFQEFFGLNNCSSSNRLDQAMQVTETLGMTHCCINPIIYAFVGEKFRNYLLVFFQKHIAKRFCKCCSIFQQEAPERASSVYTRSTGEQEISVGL

[4] = tested on: HIV-1 Env-mediated fusion (HeLa-EnvJRFL with CEM NKR-CCR5 cells); test: HIV-1 RET cell-cell fusion assay, combination testing (Part II); settings: PRO 140 in combination with the labelled inhibitor, 1:1 molar ratio
Method: Serial dilutions of small molecules were conducted in DMSO. Subsequent dilutions were conducted in medium to achieve a final DMSO concentration in the assay of 0.5%. Peptides and mAbs were diluted in PBS in the absence of DMSO.
Briefly, fluorescein octadecyl ester (F18; Molecular Probes, Eugene, Oreg.; 5 mg/ml in ethanol), was diluted 1:800 in DMEM labeling medium (DMEM; Invitrogen, Carlsbad, Calif.) with 10% fetal bovine serum (FBS; HyClone, Logan, Utah) and adjusted to an A506 of 0.34±10%. […] Both dyes were further diluted 2-fold by addition to cells in T75-cm^2 flasks. HeLa-EnvJRFL and CEM NKR-CCR5 cells were incubated overnight in F18- and R18-containing culture medium, respectively. […] The plates were then read on a fluorescence plate reader (Victor^2, Perkin Elmer, Boston, Mass.) using the excitation/emission filter combinations shown in Table 6a. […]
IC50 values were generated for all combinations as described above. Combination Index (CI) and Dose Reduction (DR) values were calculated according to the following formulas:
Combinations with CI<1 are determined to be synergistic, whereas combinations with CI>1 are determined to be antagonistic. […]
In this assay, effector cells are labeled with the F18 dye and target cells with the R18 dye. […] Drug susceptibility is measured by adding serial concentrations of drugs to target cells prior to addition of effector cells. […]

[5] = Human immunodeficiency virus 1, 1st inhibitor alone

In the case of `CCO/N=C(\c1ccc(Br)cc1)C1CCN(C2(C)CCN(C(=O)c3c(C)cc[n+]([O-])c3C)CC2)CC1` [SCH-C], the “mean reduction in HIV-1 RNA levels” value (HIV-1) is listed as ~1 log10.
`COc1ccnc2[nH]cc(C(=O)C(=O)N3CCN(C(=O)c4ccccc4)C[C@H]3C)c12` [BMS-378806, (R)—N-(benzoyl)-3-methyl-N′-[(4-methoxy-7-azaindol-3-yl)-oxoacetyl]-piperazine] gave an IC50 [1, 5] of 5.2 nM, an IC90 [1, 5] of 20 nM and an IC50 [2] of 1.2 nM. The IC90 [2] was 11 nM, the IC50 [3] was 0.03 nM and the IC90 [3] was 0.42 nM.
Work on `Cc1nnc(C(C)C)n1C1CC2CCC(C1)N2CC[C@H](NC(=O)C1CCC(F)(F)CC1)c1ccccc1` (stereo partly drawn) [UK-427,857] yielded an IC50 [1, 5] of 5.3 nM, an IC90 [1, 5] of 27 nM and an IC90 ([1]; Human immunodeficiency virus 1, inhibitor alone, experiment depicted in FIG. 15A) of 21 nM. For the same compound, the IC90 ([1]; Human immunodeficiency virus 1, inhibitor alone, experiment depicted in FIG. 15B) was 59 nM, the IC50 ([1]; Human immunodeficiency virus 1, read-out: IC50 of the combination, UK-427,857 with PRO 140, 1:1 fixed molar ratio, total concentration, FIG. 15A) was 2.1 nM and the IC90 ([1]; Human immunodeficiency virus 1, read-out: IC90 of the combination, UK-427,857 with PRO 140, 1:1 fixed molar ratio, FIG. 15A) was 4.6 nM. For the same compound, the CI90 ([1]; UK-427,857 with PRO 140 1:1, experiment depicted in FIG. 15A) was 0.32.
For `COC[C@@H](c1ccc(C(F)(F)F)cc1)N1CCN(C2(C)CCN(C(=O)c3c(C)ncnc3C)CC2)C[C@@H]1C` [SCH-D, 1-[(4,6-dimethyl-5-pyrimidinyl)carbonyl]-4-[4-[2-methoxy-1(R)-4-(trifluoromethyl)phenyl]ethyl-3(S)-methyl-1-piperazinyl]-4-methylpiperidine], the CI90 ([1]; SCH-D with UK-427,857 1:1, experiment depicted in FIG. 15B) is given as 0.73, the IC90 ([1]; SCH-D with UK-427,857, 1:1 fixed molar ratio, FIG. 15B, read-out: IC90 of the combination) is given as 31 nM and the “mean reduction in HIV-1 RNA levels” value (HIV-1) is given as ~1 log10.
Work on `Cc1cn([C@H]2C[C@H](N=[N+]=[N-])[C@@H](CO)O2)c(=O)[nH]c1=O` [zidovudine] yielded an IC50 [2] of 140 nM, an IC90 [2] of 1900 nM and an IC50 [3] of 86 nM. The IC90 [3] was 2100 nM.
For `CCCCN1C(=O)[C@@H]([C@H](O)C2CCCCC2)NC(=O)C12CCN(Cc1ccc(Oc3ccc(C(=O)O)cc3)cc1)CC2` [GW873140], the “mean reduction in HIV-1 RNA levels” value (HIV-1) is listed as ~1 log10.
For `CCCCOCCOc1ccc(-c2ccc3c(c2)/C=C(/C(=O)Nc2ccc([S+]([O-])Cc4cncn4CCC)cc2)CCCN3CC(C)C)cc1` (stereo not drawn) [TAK-652], the “anti-HIV-1 activity in vitro” value (CCR5; Baba et al., 2005) is listed as “nanomolar range”, the oral bioavailability (CCR5; Baba et al., 2005) is listed as “orally bioavailable” and the tolerability (CCR5; TAK-779: Iizawa et al., 2003, TAK-652: single oral dose, healthy male volunteers) is listed as “safe and well tolerated”.
With “RANTES: CC-chemokine, natural peptide ligand of CCR5, purchased from R&D Systems” the “CI values (50% and 90% inhibition)” value ([1]; in combination with PRO 140) was “Similarly potent synergy”, the CI50 ([1]; labelled 1st inhibitor with 2nd inhibitor UK-427,857, equimolar) was “Similarly potent synergy” and the “inhibition of HIV-1 pseudovirus entry (in words)” value ([2]; inhibitor alone) was “Neither TAK-779 nor RANTES mediated consistent, high-level inhibition”. The “Mean CT (Combination Index at IC50 value)” value [4] was 0.59 ± 0.08.
Compound `Cc1ccnc2c1NC(=O)c1cccnc1N2C1CC1` [nevirapine] has an IC50 [2] of 30 nM, an IC90 [2] of 310 nM and an IC50 [3] of 42 nM. It also gave an IC90 [3] of 280 nM.
